{
  "source": "paper PMC10547211",
  "about": "“Neuronal expression in Drosophila of an evolutionarily conserved metallophosphodiesterase reveals pleiotropic roles in longevity and odorant response” (PLOS Genetics, 2023)",
  "target": "T1, dMpped (Drosophila melanogaster, UniProt Q9VT29)",
  "T1 construct": "gene Mpped; full-length coding region (300 residues) amplified from whole-fly cDNA; E. coli BL21DE3; gel filtration; about 37 kDa on gel",
  "T1 sequence (Q9VT29 entry or part of it)": "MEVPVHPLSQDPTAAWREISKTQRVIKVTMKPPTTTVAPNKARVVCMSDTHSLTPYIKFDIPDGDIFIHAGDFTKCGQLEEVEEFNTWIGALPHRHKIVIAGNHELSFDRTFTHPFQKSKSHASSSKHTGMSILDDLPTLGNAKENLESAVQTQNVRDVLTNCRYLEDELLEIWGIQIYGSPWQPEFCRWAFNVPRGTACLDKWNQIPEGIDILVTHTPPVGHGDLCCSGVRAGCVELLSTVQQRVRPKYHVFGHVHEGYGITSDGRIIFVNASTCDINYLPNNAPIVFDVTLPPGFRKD",
  "test": "colorimetric p-nitrophenol release, […] nm",
  "type": "biochemical",
  "conditions": "Mn2+ as metal cofactor (5 mM in standard assay); pH 9.0 triple buffer; 5 mM 2-mercaptoethanol; 10 mM NaCl",
  "data": [
    {"smiles": "O=[N+]([O-])c1ccc(OP(=O)(O)c2ccccc2)cc1", "note": "[pNPPP]", "values": [
      {"measurement": "Km", "result": "~10", "unit": "mM"}
    ]}
  ]
}
